PMC10058894, “Bioactive C21 Steroidal Glycosides from Euphorbia kansui Promoted HepG2 Cell Apoptosis via the Degradation of ATP1A1 and Inhibited Macrophage Polarization under Co-Cultivation” (Molecules, 2023)

Assays:
[1] = system: HepG2 and RAW264.7 co-cultivation; experiment: Western blot in HepG2 and RAW264.7 co-cultivation; type: cell-based; settings: 25 μmol∙L−1, 48 h
Protocol: L02, HepG2, and RAW264.7 cells were incubated in DMEM (Gibco, Carlsabad, CA, USA). Then, they were supplemented with 10% FBS (Gibco, Carlsbad, CA, USA) and 100 IU/mL streptomycin-penicillin (Solarbio, Beijing, China) in a CO2 chamber at 37 °C and 95% humidity. The morphology of the cells was observed using a reversed microscope (Olympus Corporation, Shinjuku, Japan) at × 200 magnifications. The Tissue Culture Plate Insert (LABSELECT, Beijing, China, Lot: 20421087A) chambers were used for HepG2 and RAW264.7-cell co-cultivation.
Protein samples were prepared using a RIPA lysis buffer. The concentration of the protein was analyzed using a nucleic acid and protein microanalyzer (Molecular Devices, San Jose, CA, USA). SDS–PAGE was performed to separate the proteins, which were then electrotransferred onto a PVDF membrane. The membrane was incubated with antibodies at 4 °C overnight. Next, the membrane was washed and incubated with an HRP-conjugated secondary antibody (Beyotime, BeiJing, China). Finally, signals were detected by the ECL method (Beyotime, BeiJing, China) and analyzed using ImageJ software.
RAW264.7 cells (1.5 × 10^5 cells/well) and HepG2 cells (4 × 10^5 cells/well) were incubated in a Tissue Culture Plate Insert (LABSELECT, Hangzhou, China) at 37 °C and 95% humidity. Raw264.7 cells were incubated in 12-well plates, and HepG2 cells were incubated in Transwell chambers. After 24 h, the cells were treated with the compound for 48 h. Then, the chamber was discarded, and RAW264.7 cells were washed twice with PBS and a fresh medium. Next, 1.5 mL/well and 100 μL/well FluoSpheresTM carboxylate (Invitrogen, Carlsbad, CA, USA) were added to the medium for 2 h in the dark. Cells were washed twice with PBS, harvested, and then resuspended in 0.5 mL PBS. Finally, the cells were measured by a FACSCalibur (Becton Dickinson, Franklin Lakes, NJ, USA). Data were analyzed using FlowJo software.

[2] = MTT assay, cell viability of RAW264.7 cells; type: cell-based; settings: mouse, half inhibitory of RAW264.7 cells
Protocol: HepG2 cells (1 × 10^4 cells/well) or RAW264.7 cells ([…]) were incubated in 96T wells for 24 h. Then, HepG2 cells were treated with compounds or Adriamycin for 48 h. In addition, RAW264.7 cells were treated with compounds for 24 h. Then, 0.5% MTT (Sigma, Saint Louis, MO, USA) was added to 20 μL/well for 3.5 h. The supernatant was discarded, and DMSO (150 μL/well) was added to dissolve the purple formazan. Cells were agitated for 15 min at room temperature, and the absorbance at 490 nm was recorded by SpetraMax M2 (Molecular Devices, San Jose, CA, USA).
RAW264.7 cells (8 × 10^4 cells/well) were incubated in 96T wells with DMEM for 24 h and then treated with compounds and LPS (1 μg/mL) for 24 h; this included the control group and LPS group. Then, the cell supernatant was collected for nitric oxide production assay. Next, 100 uL/well PBS was added to 96T wells, then 0.5% MTT (Sigma, Saint Louis, MO, USA) was added to 20 μL/well for 3.5 h. DMSO (150 μL/well) was added to dissolve the purple formazan. Cells were agitated for 15 min at room temperature, and the absorbance at 490 nm was recorded by SpetraMax M2 (Molecular Devices, San Jose, CA, USA). The NO inhibition rate (%) = (ODLPS group − ODcompound group)/(ODLPS group-ODcontrol group) × 100%. The IC50 value refers to the inhibitory of nitric oxide production of LPS-stimulated RAW264.7 cells. Then, 70 uL of each cell supernatant sample was added into a new 96T plate, and Griess A and Griess B were added separately. Then, the absorbance value at 540 nm was detected and then brought into the standard curve to assay the concentration of NO. The cell survival rate (%) = (ODcompound group − ODblank group)/(ODcontrol group − ODblank group) × 100%. The half concentration of the cell death (CC50) value refers to the concentration of compound 5 when 50% of RAW264.7 cells die. The iNOS inhibitor ([…], L-NMMA) was selected as the positive control. The levels of cytokines (IL-1β, IFN-γ, IL-10, TNF-α, and IL-6) in the cell supernatant were determined using an ELISA kit (Novus Biologicals, Shanghai, China, Lot: 834472, 770118, 772051, 486956, 602865). When the process was conducted according to the manufacturer’s instructions, the absorbance was read at 450 nm/570 nm in a SpectraMax 340PC microplate spectrophotometer (Molecular Devices, San Jose, CA, USA).

ATP1A1 = ATP1A1 (Homo sapiens, UniProt P05023); experiment: CETSA binding assay; parameters: we focused on the regulatory effect of 5 on ATP1A1 in HepG2 cells; endogenous in cells; host or cells: HepG2; settings: 50 μmoL−1, western blot
Protocol: Figure 4 Compound 5 promoted the endocytosis and degradation of ATP1A1. (A) HepG2 cells were treated with 12.5 μmol∙L^−1 or 25 μmol∙L^−1 5 for 48 h, and the lysosomal co-localization assay was performed with a confocal laser. (B) Cells exposed to 25 μmol∙L^−1 5 for 12 h or 24 h were detected by fluorescence staining. (C) 5 is depicted in red, and the chains of Na^+, K^+-ATPase α/β/γ are represented by light blue, cyan-blue, and magenta, respectively. The crystallography, atomic coordinates, and structure factors have been deposited in the Protein Data Bank, www.pdb.org (accessed on 1 February 2023) (PDB ID code 3KDP). (D) The CETSA binding assay of ATP1A1 and β-actin in the presence or absence of 5 (50 μmoL^−1) at different temperatures was detected by western blot. The temperature-dependent melting curves and the apparent aggregation temperature were calculated by nonlinear regression. Values represent the mean ± SEM (N = 3 replicates).

In the case of `C[C@H](O)[C@]1(O)CC[C@@]2(O)[C@]1(C)[C@H](OC(=O)/C=C/c1ccccc1)C[C@@H]1[C@@]3(C)CC[C@H](O[C@H]4C[C@H](O)[C@H](O)[C@@H](C)O4)CC3=CC[C@]12O` [Compound 5, Cynsaccatol L], the Bcl2 expression ([1]; vs C and C1 groups) is reported as “down-regulating”, the “expression of cleaved-caspase 3, cleaved-caspase 8, LC3B, p62 and Bax” value ([1]; vs C and C1 groups) is reported as “significantly upregulate” and the “expression of CD206 and ARG-1” value ([1]; western blot) is reported as “downregulated”. The CC50 at 24 h [2] was 30.1 ± 3.14 µM and the “denaturation temperature of ATP1A1 (CETSA)” value (ATP1A1) was “higher than that of the control group”.
